Consider 21 compounds from patent US8871760B2, “[1,2,4]triazolo[3,4-C][1,4]oxazines as P2X7 modulators” (Roche Palo Alto LLC, priority 2009, dated 2014).

This test has as its target T1, human P2X7 (UniProt Q99572).
T1 sequence (Q99572 1-595): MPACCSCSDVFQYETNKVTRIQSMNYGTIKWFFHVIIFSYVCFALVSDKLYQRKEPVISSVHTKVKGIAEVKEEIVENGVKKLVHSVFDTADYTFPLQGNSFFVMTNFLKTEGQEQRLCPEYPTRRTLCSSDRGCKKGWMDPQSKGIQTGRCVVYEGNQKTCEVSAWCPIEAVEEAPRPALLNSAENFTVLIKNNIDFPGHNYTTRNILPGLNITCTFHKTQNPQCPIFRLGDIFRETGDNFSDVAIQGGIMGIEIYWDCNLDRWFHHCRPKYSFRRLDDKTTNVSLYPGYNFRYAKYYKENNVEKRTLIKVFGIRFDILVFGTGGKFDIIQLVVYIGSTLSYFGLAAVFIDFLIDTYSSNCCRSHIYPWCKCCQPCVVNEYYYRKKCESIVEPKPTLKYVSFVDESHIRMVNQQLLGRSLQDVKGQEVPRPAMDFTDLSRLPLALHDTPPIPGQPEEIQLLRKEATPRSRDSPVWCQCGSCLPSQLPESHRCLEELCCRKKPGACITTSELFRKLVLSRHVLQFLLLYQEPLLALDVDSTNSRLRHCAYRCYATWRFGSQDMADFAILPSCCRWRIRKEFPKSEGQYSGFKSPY
The experiment in a line: Intracellular Calcium Flux (FLIPR) Assay. Type of test: cell-based. As for the experimental part:
Intracellular Calcium Flux (FLIPR) Assay
Compound and Reagent Preparation
Stock solutions of compounds were prepared from powders as a 10 mM DMSO stock solution. These solutions were stored at RT during the two week period of these experiments to prevent freeze-thaw of the DMSO stocks. The DMSO stocks were added to the appropriate assay buffer at a concentration of 10 μM, and then diluted serially to the final concentrations that were tested. No observable precipitate was formed at any time during this process. The aqueous solutions of compounds as well as ATP (Sigma A7699) and BzATP (Sigma B6396) were prepared fresh for each day of experiment.
1321N1 cells stably expressing the full length human P2X7 gene (1321N1-hP2X7) and HEK293 cells stably expressing the full length rat P2X7 gene (HEK293-rP2X7) were obtained from the Roche Cell Culture Facility. 1321N1-hP2X7 cells were grown in Dulbecco's Modified Eagle's Medium (DMEM) high glucose supplemented with 10% FBS and […] G418. HEK293-rP2X7 cells were grown in DMEM/F-12 supplemented with 10% FBS, 1 mM CaCl2, 2 mM MgCl2, 2 mM L-Glutamine and […] G418. Cells were split such that they never became >70% confluent.
Intracellular Calcium Flux (FLIPR)
On the day prior to the experiment, 1321N1-hP2X7 or HEK293-rP2X7 cells were released into suspension with calcium-free PBS+Versene and washed by centrifugation with calcium-free PBS to remove the Versene. Cells were resuspended in growth medium at a density of 2.5×10^5 cells/mL and seeded into black walled, clear bottom 96 well plates (50,000 cells/well) approximately 18 hr prior to intracellular calcium flux experiments.
On the day of the experiment, plates were washed with FLIPR buffer (calcium- and magnesium-free Hank's Balanced Salt Solution (HBSS) supplemented with 10 mM Hepes, 2.5 mM probenecid and 2 mM calcium chloride) using a BIO-TEK 96 channel plate washer and incubated with […] fluo-3 dye at 37° C. for one hr. The dye was then removed by plate washing and the cells were allowed to equilibrate for 20 min at room temperature with antagonist or vehicle (FLIPR buffer). Agonist (100 μM BzATP final concentration for hP2X7; 5 μM BzATP final concentration or rP2X7) was added online with the FLIPR and fluorescence measurements made at 1 sec intervals for 60 sec followed by 3 sec intervals for a further 4 min (5 min total). A final addition of 5 μM ionomycin was made and the maximal BzATP-evoked fluorescence normalized to the maximal ionomycin-evoked fluorescence.
As for `C[C@H](CO)N1Cc2c(Nc3nnc4n3C(c3cccc(F)c3)COC4)ccc(Cl)c2C1=O` (stereo partly drawn) [Compound 28, 7-Chloro-4-[5-(3-fluoro-phenyl)-5,6-dihydro-8H-[1,2,4]triazolo[3,4-c][1,4]oxazin-3-ylamino]-2-((R)-2-hydroxy-1-methyl-ethyl)-2,3-dihydro-isoindol-1-one], the pIC50 is 5.625. Turning to `Cc1cc(Cl)c(OCCO)cc1Nc1nnc2n1C(c1cccc(F)c1)COC2` (stereo not drawn) [Compound 29, 2-{2-Chloro-5-[5-(3-fluoro-phenyl)-5,6-dihydro-8H-[1,2,4]triazolo[3,4-c][1,4]oxazin-3-ylamino]-4-methyl-phenoxy}-ethanol], the pIC50 worked out at 7.13. With `Cc1ccc(-c2cc(C)n(CCO)n2)cc1Nc1nnc2n1[C@H](c1ccc(F)cc1)COC2` [Compound 30, 2-(3-{3-[(R)-5-(4-Fluoro-phenyl)-5,6-dihydro-8H-[1,2,4]triazolo[3,4-c][1,4]oxazin-3-ylamino]-4-methyl-phenyl}-5-methyl-pyrazol-1-yl)-ethanol], the pIC50 came to 7.735.

Consider `Cc1ccc(-c2cc(C)n(C[C@@H](C)O)n2)cc1Nc1nnc2n1[C@H](c1ccc(F)cc1)COC2` [Compound 31, (R)-1-(3-{3-[(R)-5-(4-Fluoro-phenyl)-5,6-dihydro-8H-[1,2,4]triazolo[3,4-c][1,4]oxazin-3-ylamino]-4-methyl-phenyl}-5-methyl-pyrazol-1-yl)-propan-2-ol], for which the negative logarithm of the IC50 (pIC50) is recorded as 7.45.

`Cc1ccc(-c2cc(C)n(C[C@@H](O)CO)n2)cc1Nc1nnc2n1[C@H](c1ccc(F)cc1)COC2` [Compound 32, (R)-3-(3-{3-[(R)-5-(4-Fluoro-phenyl)-5,6-dihydro-8H-[1,2,4]triazolo[3,4-c][1,4]oxazin-3-ylamino]-4-methyl-phenyl}-5-methyl-pyrazol-1-yl)-propane-1,2-diol]: the pIC50 came to 7.5475. To `COC[C@H](O)Cn1nc(-c2ccc(C)c(Nc3nnc4n3[C@H](c3ccc(F)cc3)COC4)c2)cc1C` [Compound 33, (R)-1-(3-{3-[(R)-5-(4-Fluoro-phenyl)-5,6-dihydro-8H-[1,2,4]triazolo[3,4-c][1,4]oxazin-3-ylamino]-4-methyl-phenyl}-5-methyl-pyrazol-1-yl)-3-methoxy-propan-2-ol] belongs 7.56; to `Cc1ccc(-c2cc(C)n(C[C@H](C)O)n2)cc1Nc1nnc2n1[C@H](c1ccc(F)cc1)COC2` [Compound 34, (S)-1-(3-{3-[(R)-5-(4-Fluoro-phenyl)-5,6-dihydro-8H-[1,2,4]triazolo[3,4-c][1,4]oxazin-3-ylamino]-4-methyl-phenyl}-5-methyl-pyrazol-1-yl)-propan-2-ol], 7.4. For `Cc1ccc(-c2cc(C)n(C[C@H](O)CO)n2)cc1Nc1nnc2n1[C@H](c1ccc(F)cc1)COC2` [Compound 35, (S)-3-(3-{3-[(R)-5-(4-Fluoro-phenyl)-5,6-dihydro-8H-[1,2,4]triazolo[3,4-c][1,4]oxazin-3-ylamino]-4-methyl-phenyl}-5-methyl-pyrazol-1-yl)-propane-1,2-diol], the pIC50 was 7.755. As for `Cc1ccc2ncccc2c1Nc1nnc2n1[C@H](c1ccc(F)cc1)COC2` [Compound 36, [(R)-5-(4-Fluoro-phenyl)-5,6-dihydro-8H-[1,2,4]triazolo[3,4-c][1,4]oxazin-3-yl]-(6-methyl-quinolin-5-yl)-amine], the pIC50 stood at 7.87.

Turning to `Cc1ccc(-c2ccnn(C)c2=O)cc1Nc1nnc2n1[C@H](c1ccc(F)cc1)COC2` [Compound 37, 4-{3-[(R)-5-(4-Fluoro-phenyl)-5,6-dihydro-8H-[1,2,4]triazolo[3,4-c][1,4]oxazin-3-ylamino]-4-methyl-phenyl}-2-methyl-2H-pyridazin-3-one], the pIC50 turned out to be 7.865. As for `Cc1ccc2[nH]c(=O)ccc2c1Nc1nnc2n1[C@H](c1ccc(F)cc1)COC2` [Compound 38, 5-[(R)-5-(4-Fluoro-phenyl)-5,6-dihydro-8H-[1,2,4]triazolo[3,4-c][1,4]oxazin-3-ylamino]-6-methyl-1H-quinolin-2-one], the pIC50 is recorded as 7.46. To `Cc1cc(-c2ccc(Cl)c(Nc3nnc4n3[C@H](c3ccc(F)cc3)COC4)c2)nn1CCO` [Compound 40, 2-(3-{4-Chloro-3-[(R)-5-(4-fluoro-phenyl)-5,6-dihydro-8H-[1,2,4]triazolo[3,4-c][1,4]oxazin-3-ylamino]-phenyl}-5-methyl-pyrazol-1-yl)-ethanol] belongs 7.54. To `Cc1ccc(-c2ccc(=O)[nH]n2)cc1Nc1nnc2n1[C@H](c1ccc(F)cc1)COC2` [Compound 41, 6-{3-[(R)-5-(4-Fluoro-phenyl)-5,6-dihydro-8H-[1,2,4]triazolo[3,4-c][1,4]oxazin-3-ylamino]-4-methyl-phenyl}-2H-pyridazin-3-one] belongs 7.665; to `O=c1[nH]ncc2c(Nc3nnc4n3[C@H](c3ccc(F)cc3)COC4)cccc12` [Compound 42, 5-[(R)-5-(4-Fluoro-phenyl)-5,6-dihydro-8H-[1,2,4]triazolo[3,4-c][1,4]oxazin-3-ylamino]-2H-phthalazin-1-one], 6.135; to `Cc1ccc(-c2ccn[nH]c2=O)cc1Nc1nnc2n1[C@H](c1ccc(F)cc1)COC2` [Compound 43, 4-{3-[(R)-5-(4-Fluoro-phenyl)-5,6-dihydro-8H-[1,2,4]triazolo[3,4-c][1,4]oxazin-3-ylamino]-4-methyl-phenyl}-2H-pyridazin-3-one], 8.28.

Take `Cc1cc(Cl)c(OCCO)cc1Nc1nnc2n1[C@H](c1cccc(F)c1)COC2` [Compound 44, 2-{2-Chloro-5-[(R)-5-(3-fluoro-phenyl)-5,6-dihydro-8H-[1,2,4]triazolo[3,4-c][1,4]oxazin-3-ylamino]-4-methyl-phenoxy}-ethanol]: the pIC50 amounted to 7.6. For the compound `Cc1cc(Cl)c(OCCO)cc1Nc1nnc2n1[C@H](c1ccc(F)cc1)C[S@@+]([O-])C2` [Compound 47, 2-{2-Chloro-5-[(5R,7R)-5-(4-fluoro-phenyl)-7-oxo-5,6,7,8-tetrahydro-7lambda*4*- [1,2,4]triazolo[3,4-c][1,4]thiazin-3-ylamino]-4-methyl-phenoxy}-ethanol], the pIC50 worked out at 7.705.

With `O=c1[nH]ncc2c(Nc3nnc4n3[C@H](c3ccc(F)cc3)COC4)c(Br)ccc12` [Compound 48, 6-Bromo-5-[(R)-5-(4-fluoro-phenyl)-5,6-dihydro-8H-[1,2,4]triazolo[3,4-c][1,4]oxazin-3-ylamino]-2H-phthalazin-1-one], the pIC50 turned out to be 7.57. Consider `O=c1[nH]nccc1-c1ccc(Br)c(Nc2nnc3n2[C@H](c2ccc(F)cc2)COC3)c1` [Compound 49, 4-{4-Bromo-3-[(R)-5-(4-fluoro-phenyl)-5,6-dihydro-8H-[1,2,4]triazolo[3,4-c][1,4]oxazin-3-ylamino]-phenyl}-2H-pyridazin-3-one], for which the pIC50 was determined as 8.2.

On to `Cc1cc(Cl)c(-n2ncccc2=O)cc1Nc1nnc2n1[C@H](c1ccc(F)cc1)COC2` [Compound 50, 2-{2-Chloro-5-[(R)-5-(4-fluoro-phenyl)-5,6-dihydro-8H-[1,2,4]triazolo[3,4-c][1,4]oxazin-3-ylamino]-4-methyl-phenyl}-2H-pyridazin-3-one], for which the pIC50 was found to be 7.17. With `Cc1ccc(-c2ccnn(C)c2=O)cc1Nc1nnc2n1[C@H](c1ccc(F)cc1)CSC2` [Compound 51, 4-{3-[(R)-5-(4-Fluoro-phenyl)-5,6-dihydro-8H-[1,2,4]triazolo[3,4-c][1,4]thiazin-3-ylamino]-4-methyl-phenyl}-2-methyl-2H-pyridazin-3-one], the pIC50 is on record as 8.16.
